Where two headings read alike, the source gives them in different places. Bounds are passed on as bounds.

The test system of the assay is Gastric Acid Output. Kind of assay: Gastric antisecretory activity in the Gastric Fistula Rat (Table 2 title: Two-Hour Pylorus Ligated Rat). Format: in vivo, Long Evans rats. To be noted: numbers in parentheses are the 95% confidence limits. The method, then: Male Long Evans rats weighing about 240-260 grams at the time of cannula implantation are used. The design and implantation of the stainless steel cannula into the anterior wall of the fore-stomach are carried out essentially as described by Pare et al. [Laboratory Animal Science, 27, 244 (1977)]. The fistula components are designed and the operative procedure is carried out exactly as described in the above reference. Post operatively the animals are individually housed in solid bottom cages with sawdust and are allowed food and water ad libitum throughout the entire recovery period. Animals are not used for test purposes for at least 15 days after the operative procedure.
The animals are fasted but allowed water ad libitum for 20 hours before the testing procedure is to begin. Immediately prior to collection, the cannula is opened and the stomach washed gently with 30-40 mL of warm saline or distilled water to remove any residual contents. The catheter is then screwed into the cannula in place of the plugging screw and the rat is placed in a clear plastic rectangular cage measuring 40 cm long, 15 cm wide and 13 cm high. The bottom of the cage has a slit approximately 1.5 cm wide and 25 cm long running down the center to accommodate the catheter which hangs through it. In this way the rat is not restricted and can move freely about the cage during collection periods. The remainder of the assay is carried out as described by Ridley et al. [Research Comm. Chem. Path. Pharm., 17, 365 (1977)].
Gastric secretions collected during the first hour after washing the stomach are discarded as they may be contaminated. For oral evaluation, the catheter is then removed from the cannula and replaced with the plugging screw. Water (2 mL/kg) is administered orally via gastric intubation and the animal is returned to the cage for 45 minutes. After this time the plugging screw is removed and replaced with a catheter to which a small plastic vial has been attached to collect the gastric secretions. A two hour sample is collected (this represents the control secretion), the catheter removed and replaced with the plugging screw. The test drug is now administered orally in a volume of 2 mL/kg via gastric intubation. Forty-five minutes later the plugging screw is again removed, replaced with the catheter attached to a small plastic vial and another 2 hour sample is collected. The secretions in the second sample are compared to those of the control sample in order to determine the effects of the test drug.
When test compounds are to be evaluated parenterally, the animal is injected ip or sc with the test compound vehicle in a volume of 2 mL/kg immediately after discarding the initial 60 minute collection. A two hour sample is collected (control secretion) and the animals are injected either ip or sc with the test compound in a volume of 2 mL/kg. An additional two hour sample is collected and its secretions are compared to those of the control period to determing drug effects.
The samples are centrifuged in a graduated tube for volume determination. Titratable acidity is measured by titrating a one mL sample to pH 7.0 with 0.02N NaOH, using an Autoburet and an electrometric pH meter (Radiometer). Titratable acid output is calculated in microequivalents by multiplying the volume in milliliters by the acid concentration in milliequivalents per liter.
Results are expressed as percent inhibition relative to control readings. Dose response curves are constructed and ED values are calculated by regression analyses. At least three rats are used at each dosage level and a minimum of three dosage levels are utilized for determination of a dose response curve.

Setting [1] is: Rattus norvegicus, ip, Route of Administration i.p., read-out: ED50.
[2] abbreviates: Rattus norvegicus, sc, Route of Administration s.c., read-out: ED50.

For the molecule `C#CCNC1=NS(=O)(=O)N=C1NCCSCc1nc[nH]c1C` [Example 1, 3-{2-[(5-Methyl-1H-imidazol-4-yl)methylthio}ethylamino}-4-(2-propynyl)amino-1,2,5-thiadiazole 1,1-dioxide], the ED50 under setting [1] came out at 12.5 µmol/kg.

Consider `CN(C)Cc1ccc(CSCCNC2=NS(=O)(=O)N=C2NCc2ccccc2)s1` [Example 112, 3-Benzylamino-4-(2-[(5-dimethylaminomethyl-2-thienyl)-methylthio]ethylamino}-1,2,5-thiadiazole 1,1-dioxide], for which, under setting [2], the ED50 came to 1.2 µmol/kg. On to `CN(C)Cc1ccc(CSCCNC2=NS(=O)(=O)N=C2NCc2ccc3c(c2)OCO3)s1` [Example 135, 3-{2-[(5-Dimethylaminomethyl-2-thienyl)methylthio]ethylamino}-4-(3,4-methylenedioxybenzylamino)-1,2,5-thiadiazole 1,1-dioxide], for which the ED50 under setting [2] amounted to 0.57 µmol/kg. On the same count and under the same terms, under `CN(C)Cc1nc(CSCCNC2=NS(=O)(=O)N=C2N)cs1` [Example 94, 3-A-mino-4-{2-[(2-dinethylaminomethyl-4-thiazolyl)methylthio)-ethylamino}-1,2,5-thiadiazole 1,1-dioxide] stands 0.44 µmol/kg.

Take `Cc1[nH]cnc1CSCCNC1=NS(=O)(=O)N=C1O` [Example 7, 3-Hydroxy-4-{2-[(5-methyl-1H-imidazol-4-yl)methylthio]-ethylamino}-1,2,5-thiadiazole 1,1-dioxide]: under setting [1], the ED50 worked out at 31.1 µmol/kg.

Turning to `CNC1=NS(=O)(=O)N=C1NCCSCc1cccc(CN(C)C)c1` [Example 90, 3-{2-[(3-{Dimethylaminomethyl}phenyl)methylthio]ethylamino}-4-methylamino-1,2,5-thiadiazole 1,1-dioxide], the ED50 under setting [2] was 0.86 µmol/kg. As to `NC1=NS(=O)(=O)N=C1NCCCOc1cccc(CN2CCOCC2)c1` [146 d], the ED50 (Route of Administration s.c.) is reported as 0.28 (0.066-1.21) μmoles/kg. As for `CN(C)Cc1ccc(CSCCNC2=NS(=O)(=O)N=C2NN)o1` [Example 51], the ED50 under setting [2] is 55 µmol/kg. Same read-out and setting: as for `CNC1=NS(=O)(=O)N=C1NCCCCc1ccc(CN(C)C)o1` [Example 21, 3-{4-(5-Dimethylaminomethyl-2-furyl)butylamino}-4-methvlamino-1,2,5-thiadiazole 1,1-dioxide], the figure is 0.3 µmol/kg.

Take `CN(C)Cc1ccc(CSCCNC2=NS(=O)(=O)N=C2NO)o1` [Example 105, 3-{2-[(5-Dimethylaminomethyl-2-furyl)methylthio]ethy1arnino}-4-hydroxylamino-1,2,5-thiadiazole 1,1-dioxide]: under setting [2], the ED50 was 1.65 µmol/kg. On the same count and under the same terms, under `CNc1n[s+]([O-])nc1NCCSCc1csc(NC(=N)N)n1` (stereo not drawn) [Example 115, 3-{2-[(2-Guanidinothiazol-4-yl)methylthio]ethylamino}-4-methylamino-1,2,5-thiadiazole 1-oxide] stands 0.57 µmol/kg. For the molecule `CN(C)Cc1ccc(CSCCNC2=NS(=O)(=O)N=C2NCC2CC2)o1` [Example 98, 3-Cyclopropylmethylamino-4-{2-[ (5-dimethylaminomethyl-2-furyl)methylthio]ethylamino}-1,2,5-thiadiazole 1,1-dioxide], the ED50 under setting [2] worked out at 0.52 µmol/kg.

`CONC1=NS(=O)(=O)N=C1NCCSCc1ccc(CN(C)C)o1` [Example 107, 3-{2-[(5-Dimethylaminomethyl-2-furyl)methylthio]ethylamino}-4-methoxyamino-1,2,5-thiadiazole 1,1-dioxide]: the ED50 under setting [2] was 23 µmol/kg. The same measure, in the same setting: under `CN(C)Cc1ccc(CSCCNC2=NS(=O)(=O)N=C2N)s1` [Example 111, 3-Amino-4-{2-[(5-dimethylaminomethyl-2-thienyl)methylthio]-ethylamino}-1,2,5-thiadiazole 1,1-dioxide] stands 0.64 µmol/kg; under `CN(C)Cc1ccc(CSCCNC2=NS(=O)(=O)N=C2NCc2ccccc2)o1` [Example 89, 3-Benzylamino-4-{2-[(5-dimethylaminomethyl-2-furyl)-methylthio]ethylamino}-1,2,5-thiadiazole 1,1-dioxide], 0.25 µmol/kg. For the molecule `CN=C(NC)Nc1nc(CSCCNc2n[s+]([O-])nc2N)cs1` (stereo not drawn) [Example 120, 3-Amino-4-{2-[(2-{2,3-dimethylguanidino}thiazol-4-yl)-methylthio]ethylamino}-1,2,5-thiadiazole I-oxide], the ED50 under setting [2] was approximately 5 µmol/kg. As to `CNC1=NS(=O)(=O)N=C1NCCCOc1cccc(CN2CCC(C)CC2)c1` [144 b], the ED50 (Route of Administration s.c.) was 0.025 (0.0087-0.065) μmoles/kg.

`N=C(N)Nc1nc(CSCCNC2=NS(=O)(=O)N=C2NCCO)cs1` [Example 36, 3-{2-[(2-Guanidinothiazol-4-yl)methylthio]ethylamino}-4-(2-hydroxyethylamino)-1,2,5-thiadiazole 1,1-dioxide]: under setting [2], the ED50 came to 1.59 µmol/kg. Same read-out and setting: as for `CN(C)Cc1ccc(CSCCNC2=NS(=O)(=O)N=C2N2CCOCC2)o1` [Example 99, 3-{2-[(5-Dimethylaminomethyl-2-furyl)methylthio]ethylamino}-4-morpholino-1,2,5-thiadiazole 1,1-dioxide], the figure is 32 µmol/kg; as for `CCNc1n[s+]([O-])nc1NCCSCc1ccc(CN(C)C)o1` (stereo not drawn) [Example 84, 3-{2-[(5-Dimethylaminomethyl-2-furyl)methylthio]ethylartino}-4-ethylamino-1,2,5-thiadiazole 1-oxide], 0.15 µmol/kg.

As for `Nc1n[s+]([O-])nc1NCCCOc1cccc(CN2CCCC2)c1` (stereo not drawn) [145 a], the ED50 (Route of Administration s.c.) is 0.056 (0.021-0.18) μmoles/kg.

Turning to `CNC1=NS(=O)(=O)N=C1NCCSCc1csc(N=C2NCCN2)n1` [Example 128, 3-{2-[(2-{2-Imidazolidinyl}iminothiazol-4-yl)methylthio]-ethylamino}-4-methy1amino-1,2,5-thiadiazole 1,1-dioxide], the ED50 under setting [2] is approximately 10 µmol/kg. Same read-out and setting: under `CN(C)Cc1ncc(CSCCNc2n[s+]([O-])nc2N)s1` (stereo not drawn) [Example 123, 3-Amino-4-{2-[(2-dimethylaminomethylthiazol-5-yl)methylthio]-ethylamino}-1,2,5-thiadiazole 1-oxide] stands more than 10 µmol/kg; under `CNC1=NS(=O)(=O)N=C1NCCSCc1csc(N(C)C)n1` [Example 127, 3-{2-[(2-Dimethylaminothiazol-4-yl)methylthio]ethylamino}-4-methylamino-1,2,5-thiadiazole 1,1-dioxide], more than 10 µmol/kg. Still for that read-out and setting: as for `CN(C)Cc1ccc(CSCCNC2=NS(=O)(=O)N=C2NCc2ccncc2)s1` [Example 130, 3-{2-[(5-Dimethylaminomethyl-2-thienyl)methylthio]ethylamino}-4-[(4-pyridyl)methylamino]-1,2,5-thiadiazole 1,1-dioxide], the figure is 2.3 µmol/kg; as for `CCNC1=NS(=O)(=O)N=C1NCCSCc1ccc(CN(C)C)s1` [Example 131, 3-{2-[(5-Dimethylaminomethyl-2-thienyl)methylthio]ethylamino}-4-ethylamino-1,2,5-thiadiazole 1,1-dioxide], approximately 0.5 µmol/kg. Same read-out and setting: as for `N=C(N)Nc1nc(CSCCNc2n[s+]([O-])nc2NCCSCc2csc(NC(=N)N)n2)cs1` (stereo not drawn) [Example 121, 3,4-Bis-{2-[(2-guanidinothiazol-4-yl)methylthio]ethylamino}-1,2,5-thiadiazole 1-oxide], the figure is 0.19 µmol/kg. As to `Cc1[nH]cnc1CSCCNC1=NS(=O)(=O)N=C1NCCSCc1csc(N=C(N)N)n1` [Example 3, 3-{2-[(2-Guanidinothiazol-4-yl)methylthio]ethylanino}-4-{2-[(5-methyl-1H-imidazol-4-yl)methylthio]ethylamino}-1,2,5-thiadiazole 1,1-dioxide], the ED50 under setting [1] was 0.46 µmol/kg.

Consider `CN(C)Cc1ccc(CSCCNC2=NS(=O)(=O)N=C2NCc2ccccn2)o1` [Example 104, 3-{2-[(5-Dimethylaminomethyl-2-furyl)methylthio]ethylamino}-4-[(2-pyridyl)methylamino]-1,2,5-thiadiazole 1,1-dioxide], for which, under setting [2], the ED50 came to 0.61 µmol/kg. For `CCCCNC1=NS(=O)(=O)N=C1NCCSCc1ccc(CN(C)C)o1` [Example 103, 3-Butylamino-4-(2-[(5-dimethylaminomethyl-2-furyl)methylthio]-ethylamino}-1,2,5-thiadiazole 1,1-dioxide], the ED50 under setting [2] was 0.54 µmol/kg.
